Measurements reported in patent EP0863769B1 (priority 1996, dated 1998).
pKd: −log10 of the molar value.

Key:
Type in all cases: binding, Influenza Viren
Conditions in all cases: read-out: Affinität der Bindung an Virus, Kaff
B/Yamagata/11/88 = target: B/Yamagata/11/88
B/USSR/100/83 = target: B/USSR/100/83
A/Sichuan/1/87 = target: A/Sichuan/1/87
B/Ann Arbor/1/86 = target: B/Ann Arbor/1/86
A/USSR/3/85 = target: A/USSR/3/85
A/FW/1/50 = target: A/FW/1/50
A/Chile/1/83 = target: A/Chile/1/83
X31 (A/Aichi/2/68) = target: X31 (A/Aichi/2/68)
A/USSR/90/77 = target: A/USSR/90/77
A/England/321/77 = target: A/England/321/77

Poly-N-(2-Hydroxyethyl)-acrylamid mit 20% mol. 6SLN [6SLN-PAA]
pKd (B/Yamagata/11/88): 4.00 | pKd (B/USSR/100/83): 5.70 | pKd (A/Sichuan/1/87): 7.00 | pKd (B/Ann Arbor/1/86): 5.52 | pKd (A/USSR/3/85): 7.00 | pKd (A/FW/1/50): 5.52 | pKd (A/Chile/1/83): 5.22 | pKd (X31 (A/Aichi/2/68)): 5.52 | pKd (A/USSR/90/77): 6.52 | pKd (A/England/321/77): 8.00
